Data from patent publication US11357778B2, “Antagonist of the fibroblast growth factor receptor 3 (FGFR3) for use in the treatment or the prevention of skeletal disorders linked with abnormal activation of FGFR3” (INSTITUT NATIONAL DE LA SANTE ET DE LE RECHERCHE MEDICALE …, priority 2011, dated 2022).

What was measured:
Fgfr3^Y367C/+ femurs = assay: Ex vivo culture of E16.5 embryonic femur explants, bone length; assay type: cell-based, mouse; conditions: for gain in femur length: Fgfr3^Y367C/+ femurs
Method: Six sets of ex vivo experiments were performed. Femur embryos at day E16.5 from WT (n=6) and Fgfr3^Y367C/+ (n=6) mice were used and incubated for 5 days in DMEM medium with antibiotics and 0.2% BSA (Sigma) supplemented with A31 or PD173074 (as control) at a concentration of 2 mM. Right femur was cultured in supplemented medium and compared with the left one cultured in control medium. Rib cage from E16.5 WT and Fgfr3^Y367C/+ mice embryos were isolated and stripped of all soft tissues. Primary chondrocytes were obtained from rib cages. The ribs were incubated in a pronase solution (Roche; 2 mg/ml) followed by a digestion in Collagenase A (Roche; 3 mg/ml) at 37° C. Isolated chondrocytes were plated out at a density of 2.105 cells in 6-well plates containing DMEM supplemented with 10% FCS and antibiotics, and were allowed to reach subconfluency. Cultures were supplemented with A31 or PD173074 (as control) at a concentration of 2 mM. Cells were treated with A31 (2 mM) PD173074 (as control) in serum-free DMEM supplemented with 0.2% BSA and harvested after 24 h. To establish the effect of the inhibitors, the right femur was cultured in supplemented medium and compared with the left one cultured in control medium The bone length was measured at the beginning (before treatment) and at the end of time course. Each experiment was repeated at least three times. The genotype of WT, Fgfr3^Y367C/+ and Fgfr3^−/− mice were determined by PCR of tail DNA as previously described (Pannier et al., Biochim Biophys Acta, 1792: 140-147, 2009). All experimental procedures and protocols were approved by the Animal Care and Use Committee.
Fgfr3^Y367C/+ mice display reduced length of long bones, broad femurs, a narrow trunk, short ribs and a slightly dome-shaped skull, closely resembling achondroplasia (FIGS. 3A and B). The inventors analyzed the effects of A31 on endochondral ossification in Fgfr3^Y367C/+ mice by using an ex vivo culture system for embryonic day 16.5 (E16.5) limb explants. […] After 5 days of culture, the increase in length of the treated mutant femurs was 2.6 times more than for that of WT.
Thus, embryonic femur explants were co-incubated with 150 nM of PD173074 for 5 days.
Embryonic femur explants were co-incubated 100 nM (10^−7M) or 1 μM (10^−6M) of BGJ-398 for 6 days.

[1] = test system: FGFR3Y373C, FGFR3K650E, FGFR3K650M, FGFR3G380R; assay: Constitutive FGFR3 phosphorylation in HEK-293 cells transiently expressing activated FGFR3; assay type: cell-based, human; conditions: 10 μM, data not shown
Fgfr3^Y367C/+ mice = assay: Dwarfism mouse model, X-rays analysis of skeleton and body growth; assay type: in vivo; conditions: 10 days
Method: The effectiveness of PD173074 and BGJ-398 in attenuating the dwarfism phenotype of Fgfr3^Y367C/+ mice was assessed in viva. The mice were seven days of age at treatment initiation and received daily subcutaneous administration of 4.00 mg/kg PD173074 or of 1.66 mg/kg BGJ-398 for 10 days.
The effectiveness of PD173074 in attenuating the dwarfism phenotype of Fgfr3^Y367C/+ mice was assessed in vivo. The mice were seven days of age at treatment initiation and received daily subcutaneous administrations of 4.00 mg/kg of PD173074 for 10 days.
Seven days old mice received daily subcutaneous administrations of 1.66 mg/kg of BGJ-398 for 10 days.

[2] = test system: Fgfr3^Y367C/+ growth plate; assay: Histology of cultured femur growth plate (HES staining, type X collagen in situ hybridization); assay type: cell-based, mouse
Method: Limb explants were fixed after culture in 4% paraformaldehyde at 4° C., and placed in a staining solution for 45-60 minutes (0.05% Alizarin Red, 0.015% Alcian Blue, 5% acetic acid in 70% ethanol) or embedded in paraffin. Serial […] were stained with Hematoxylin-Eosin using standard protocols for histological analysis or were subjected to in situ hybridization or immunohistochemical staining. In situ hybridization using [S35]-UTP labeled antisense ribopropes for collagen X was carried out as previously described (Delezoide et al., Hum Mol Genet, 6, 1899-1906, 1997). Sections were counterstained with Hematoxylin. For immunohistochemistry, sections were stained with antibodies specific to FGFR3 (1:250 dilution; Sigma), anti PCNA (1:1000 dilution; Abcam), anti-KI67 (1:300; Abcam), anti-cyclin D1 (1:80 dilution; Santa Cruz) and anti-p57 (1:100 dilution; Santa Cruz) using the Dako Envision kit. Images were captured with an Olympus PD70-IX2-UCB microscope. […] The inventors evaluated the impact of A31 on the growth plate (FIG. 4A). […] Histological examinations using HES staining (FIG. 10A) and type X collagen labeling (FIG. 10B) were also carried out.

CCN1CCN(c2ccc(Nc3cc(N(C)C(=O)Nc4c(Cl)c(OC)cc(OC)c4Cl)ncn3)cc2)CC1 [BGJ-398, reference compound]
femur size over concentration (in words) (Fgfr3^Y367C/+ femurs; BGJ-398 100 nM to 1 μM, 6 days): concentration-dependent increase | gain in femur length (Fgfr3^Y367C/+ femurs; BGJ-398 100 nM, 6 days): 71.86% | constitutive FGFR3 receptor phosphorylation [1]: abolished receptor phosphorylation | dwarfism phenotype (X-rays) (Fgfr3^Y367C/+ mice; BGJ-398 1.66 mg/kg daily subcutaneous, from 7 days of age): Dramatic phenotypic changes | chondrocyte morphology (HES staining) ([2]; BGJ-398 10^−6M): larger and more spherical | size of the hypertrophic zone of the femur explants ([2]; BGJ-398, Fgfr3^Y367C/+ femur explants): increases | type X collagen expression (in situ hybridization) ([2]; BGJ-398, Fgfr3^Y367C/+ growth plate): enhanced type X collagen expression

CCN(CC)CCCCNc1ncc2cc(-c3cc(OC)cc(OC)c3)c(NC(=O)NC(C)(C)C)nc2n1 [PD173074]
gain in femur length (Fgfr3^Y367C/+ femurs; PD173074 150 nM, 5 days): 77% | body size (Fgfr3^Y367C/+ mice; PD173074 4.00 mg/kg daily subcutaneous): overall increase in body size | dwarfism phenotype (X-rays, clinical features) (Fgfr3^Y367C/+ mice; PD173074 4.00 mg/kg daily subcutaneous, from 7 days of age): Amelioration in key relevant achondroplasia clinical features
